Data on 5 substances can be found in PMC8962522, “Direct interaction of TrkA/CD44v3 is essential for NGF-promoted aggressiveness of breast cancer cells” (Journal of Experimental & Clinical Cancer Research : CR, 2022).

For experiment [1], the system named is CD44v3 (CD44v3-His, whole cell extracts of COS-7 cells expressing CD44v3). In words: MST binding of NGF, TrkA or FGF to CD44v3. Conditions: whole cell extracts of COS-7 expressing CD44v3, NGF alone, TrkA alone or FGF control. Here is the method:
(§1) MST was conducted using an NT.115 A Pico MST instrument (Nano Temper Technologies GmbH) equipped with red and blue filter sets. The TrkA-His tagged extracellular domain protein (Ala 34-Gly423) (9966-TK-050; R&D Systems, United Kingdom), diluted to 200 nM in PBS-T buffer (supplied by the vendor), was labeled using a Monolith His-Tag Labeling Kit with RED-Tris-NTA (Nano Temper). The RED-Tris-NTA dye was diluted in PBS-T to 100 nM. The mix was incubated at RT in the dark for 30 min. Next, an extract expressing CD44v3-labeled protein (CD44v3-His) and ligand and/or TrkA was mixed at a 1:1 ratio and incubated at RT in the dark for 15 min. For the binding check, peptides and TrkA-His were used. Capillaries were filled individually and loaded into the instrument. The data were acquired using high MST power and 100% LED. The data were analyzed using MO Control Software (Nano Temper).
(§2) Fig. 1 The C-terminal region of CD44 variant 3 binds to TrkA. A Schematic representation of the CD44 gene and protein structure. Alternative splicing leads to the expression of CD44 variants, thus the insertion of exon 8 leads to the expression of a CD44 protein containing variant 3 (CD44v3) and the insertion of exon 11 leads to the expression of a CD44 containing variant 6 (CD44v6) (B) TrkA/CD44v3 complex formation in COS-7 cells expressing TrkA and CD44v3 was detected by the proximity ligation assay (PLA), which was performed 0, 5 and 30 min after the initiation of NGF (100 ng/ml) treatment. The images represent signals detected by PLA. Quantification of the red spots was performed by ImageJ software (30 randomly chosen fields per condition of three different experiments). Statistical analyses were performed using one-way ANOVA followed by Bonferroni’s posttest. Error bars represent the standard error of the mean (S.E.M.); *** p < 0.001. ns, nonsignificant. C NGF and/or TrkA binding to CD44v3 was measured by microscale thermophoresis (MST). MST experiments were performed on whole cell extracts of COS-7 cells expressing CD44v3. […]

Experiment [2] relates to TrkA-His tagged extracellular domain protein (Ala 34-Gly423). In words: MST binding of CD44v3 mimetic peptides to TrkA. As to conditions: TrkA-His 200 nM labelled with RED-Tris-NTA, PBS-T. How it is done:
as §1
Fig. 2 The C-terminal region of CD44v3 and the His112 residue of TrkA are involved in the CD44v3/TrkA interaction. TrkA/CD44v3 complex association was detected by the proximity ligation assay (PLA) in wild-type TrkA- or TrkA_H112A- and CD44v3-expressing COS-7 cells. Proximity ligation assays were performed after 0, 5 and 30 min of NGF treatment (100 ng/ml). Representative images of signals detected by PLA (A) and their quantification (B). Sequence of CD44 exon variant 3 and deletion mutant Δ3 or Δ4 (C). TrkA/CD44v3 complex association was detected by PLA in wild-type TrkA and CD44v3 wild type or CD44v3 deleted mutant Δ3 or Δ4 expressing COS-7 (D, E). Sequence of CD44v3 mimetic peptides (F) and structure (G). TrkA binding to CD44v3 mimetic peptides by microscale thermophoresis (H) and effects of CD44v3 mimetic peptides 3 (RDRHLSFSGSG) and 4 ([…]) on TrkA/CD44v3 complex formation (I, J). Quantification of PLA was performed using ImageJ software (30 fields per condition of three different experiments). Statistical analyses were performed using one-way ANOVA followed by Bonferroni’s posttest.
To block the TrkA-CD44v3 association, 4 mimetic peptides of CD44v3 were designed corresponding to zone 1 [(K) STSSNTISAG], zone 2 (WEPNEENEDE), zone 3 (RDRHLSFSGSG) and zone 4 (IDDDEDFISST) (Fig. 2F & G). The binding capacities of the CD44v3 mimetic peptides to TrkA were then measured by MST (Fig. 2H). […] To confirm mimetic peptide 4 binding, we assessed its ability to bind TrkA using nanoscale differential scanning fluorimetry (nanoDSF; Supplementary Fig. 6A & B).

For experiment [3], the system named is TrkA/CD44v3 complex in COS-7 cells expressing TrkA and CD44v3. In words: PLA TrkA/CD44v3 complex formation in COS-7 cells. The class given is cell-based, African green monkey (COS-7 cells). Conditions: COS-7 expressing TrkA and CD44v3, NGF 100 ng/ml, 0, 5 and 30 min, 30 fields per condition, three experiments. Here is the method:
(§3) Cells (10,000 cells per well) were grown on acid-washed eight-well glass slides (Thermo Scientific) in the appropriate medium supplemented with 10% FBS for 24 h. After NGF treatment, paraformaldehyde (PAF)-fixed cells were incubated with 4% bovine serum albumin (BSA) or 5% FBS (for 1 h at 20 °C), followed by overnight incubation with primary antibodies (rabbit anti-TrkA or rabbit anti-IgG + mouse anti-pan-CD44; mouse anti-CD44v3; mouse anti-CD44v6; mouse anti-IgG2a; mouse anti-IgG2b; or mouse anti-IgG1). PLA was performed following the manufacturer’s instructions in the assay kit (Duolink PLA; Sigma–Aldrich). To obtain the correct representation of the PLA signal for each condition, 30 fields per condition were observed using a fluorescence microscope (Eclipse TiU; Nikon, Japan). The PLA signals (red dots) were automatically quantified using ImageJ software (with an in-house-developed plug-in). After PLA, statistical analyses were performed using GraphPad Prism software to determine the mean dot intensity in the cells.
as §2
Fig. 2 The C-terminal region of CD44v3 and the His112 residue of TrkA are involved in the CD44v3/TrkA interaction. TrkA/CD44v3 complex association was detected by the proximity ligation assay (PLA) in wild-type TrkA- or TrkA_H112A- and CD44v3-expressing COS-7 cells. […] Representative images of signals detected by PLA (A) and their quantification (B). […] TrkA/CD44v3 complex association was detected by PLA in wild-type TrkA and CD44v3 wild type or CD44v3 deleted mutant Δ3 or Δ4 expressing COS-7 (D, E). […] Quantification of PLA was performed using ImageJ software (30 fields per condition of three different experiments). […]

Experiment [4] has as its system TrkA/CD44v3 complex in MDA-MB-231 cells. In words: PLA TrkA/CD44v3 complex formation in MDA-MB-231 cells. Conditions: NGF 100 ng/ml; 30 fields per condition, three experiments. The class given is cell-based. How it is done:
as §3
Fig. 3 CD44v3 mimetic peptide 4 blocks the TrkA-CD44 association in MDA-MB-231 breast cancer cells. TrkA/CD44v3 (A) and TrkA/CD44v6 (B) complex associations were detected by the proximity ligation assay (PLA) in MDA-MB-231 breast cancer cells. Effects of a scramble peptide (SP) (C), CD44v3 mimetic peptide 3 (P3) and 4 (P4) (D) on TrkA/CD44v3 complex formation induced by NGF. Quantification of the PLA results was performed by ImageJ software (30 randomly chosen fields per condition of three different experiments). Statistical analyses were performed using one-way ANOVA followed by Bonferroni’s posttest. The error bars represent the standard error of the mean (S.E.M.); * p < 0.05, ** p < 0.01, *** p < 0.001; ns, not significant

Turning to “FGF-1: fibroblast growth factor, positive control for CD44v3 binding”, the “binding to CD44v3 (in words)” value in experiment [1] was “In contrast to FGF-1 (Supplementary Fig. 4), NGF did not bind to CD44v3”.

In the case of “FGF-2: FGF-2 (control), binding to CD44v3”, the “binding to CD44v3 (in words)” value in experiment [1] was “binding to CD44v3 but not to NGF was detected”.

With “KSTSSNTISAG [Peptide 1, CD44v3 mimetic peptide corresponding to zone 1 [(K) […]]]”, in experiment [2], the “binding to TrkA by MST (in words)” value is “neither peptide 1 ([…]) nor peptide 2 ([…]) could bind TrkA”.

On to “RDRHLSFSGSG [Peptide 3, CD44v3 mimetic peptide corresponding to zone 3 (…)]”, for which the “effect on TrkA/CD44v3 complex formation (PLA) in COS-7 cells” value is “did not inhibit TrkA/CD44v3 complex formation” in experiment [3] and “did not abolish complex formation” in experiment [3] (listed as P3). Further, the “effect on TrkA/CD44v3 complex formation (PLA) in MDA-MB-231 cells” value in experiment [4] is on record as “neither a scramble peptide (Fig. 3C) nor mimetic peptide P3 (Fig. 3D) inhibited TrkA/CD44v3 complex formation following NGF treatment”. Moreover, the “binding to TrkA by MST (in words)” value in experiment [2] (listed as P3) was “also bound TrkA”.

“WEPNEENEDE [Peptide 2, CD44v3 mimetic peptide corresponding to zone 2 (…)]”: in experiment [2], the “binding to TrkA by MST (in words)” value is given as “neither peptide 1 (KSTSSNTISAG) nor peptide 2 (WEPNEENEDE) could bind TrkA”.
